Experimental findings from patent USRE47689E1, “Compounds for treating spinal muscular atrophy” (PTC Therapeutics, Inc., priority 2011, dated 2019) are described below.

Each structure is given as a SMILES string.

Data set [1] relates to SMN2 minigene (full length SMN2 minigene mRNA containing SMN2 exon 7). Nature of the data set: SMN2 minigene mRNA splicing RT-qPCR assay in cultured cells. It counts as cell-based, human. The following applies: Homo sapiens, HEK293-H; HEK293H cells stably transfected with SMN2-A minigene; 24 hours; 7-point concentration curve; 1.5-fold relative to vehicle-treated cells; read-out: EC1.5x for production of full length SMN2 mRNA. An outline of the steps:
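Read-out: full-length (exon 7-included) SMN2 minigene mRNA by multiplex RT-qPCR with GAPDH, efficiency-corrected (1+E)^−Ct, GAPDH-normalized and divided by vehicle. Stably transfected HEK293H cells, 24 h compound exposure, duplicates per concentration. Value is EC1.5x, reported as star ranges.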

The subject of the next data set is Smn protein. Description: Smn protein assay in cultured cells (SMN HTRF). It counts as cell-based, human. The following applies: 48 hours; for maximum fold (Fold) increase of Smn protein: SMA patient fibroblast cells, 7-point concentration data, fold increase relative to vehicle control (SMN HTRF); for EC1.5x (concentration giving 1.5-fold Smn protein increase): SMA Type 1 patient fibroblast cells (GM03813), 7-point concentration curve, SMN HTRF, concentration producing 1.5 times Smn protein vs DMSO vehicle control, read-out: EC1.5x for Smn protein expression. Put shortly:
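Lysates in RIPA with protease inhibitors are incubated overnight at room temperature with HTRF anti-SMN antibodies. EC1.5x is derived from fold increase in ΔF over vehicle.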

With `O=c1oc2cc(N3CCNCC3)ccc2cc1-c1cn2cccc(F)c2n1` [Compound 149, 3-(8-fluoroimidazo[1,2-a]pyridin-2-yl)-7-(piperazin-1-yl)-2H-chromen-2-one], the melting point lay in the range of 236 to 238 °C. Moreover, in data set [1], the EC (1.5-fold) lay within 1 to 3 µM. Moreover, the “maximum fold (Fold) increase of Smn protein” value (“maximum fold (Fold) increase” for short) in the data set with Smn protein was “*** (fold increase between >1.35 and ≤1.5)”.

Take `Cc1cc(Cl)c2nc(-c3cc4ccc(N5CCCN(C)CC5)cc4oc3=O)cn2c1` [Compound 344, 3-(8-chloro-6-methylimidazo[1,2-a]pyridin-2-yl)-7-(4-methyl-1,4-diazepan-1-yl)-2H-chromen-2-one]: the melting point is 224 to 230 °C. In addition, in data set [1], the EC (1.5-fold) was 0.3 to 1 µM. Moreover, in the data set with Smn protein, the “maximum fold (Fold) increase” value is “** (fold increase between >1.2 and ≤1.35)”.

Compound `C[C@H]1CN(c2ccc3cc(-c4cccc(Cl)c4)c(=O)oc3c2)CCN1` [Compound 509, 3-(3-chlorophenyl)-7-[(3S)-3-methylpiperazin-1-yl]-2H-chromen-2-one] displayed a melting point of 149 to 151 °C. Moreover, the EC (1.5-fold) in data set [1] is 1 to 3 µM. Besides, in the data set with Smn protein, the “maximum fold (Fold) increase” value is “* (maximum fold increase of ≤1.2)”.

On to `CN1CCN(c2ccc3cc(-c4cccc(OC5CCC5)n4)c(=O)oc3c2)CC1` [Compound 415, 3-[6-(cyclobutyloxy)pyridin-2-yl]-7-(4-methylpiperazin-1-yl)-2H-chromen-2-one], for which the melting point fell in the range of 158 to 160 °C. The EC (1.5-fold) in data set [1] was 3 to 30 µM. In the data set on Smn protein, the “maximum fold (Fold) increase” value was “* (maximum fold increase of ≤1.2)”.

Turning to `Cc1ccn2nc(-c3cc4ccc(N5CCN[C@H](C)C5)cc4oc3=O)cc2c1` [Compound 306, 7-[(3R)-3-methylpiperazin-1-yl]-3-(5-methylpyrazolo[1,5-a]pyridin-2-yl)-2H-chromen-2-one], the melting point lay in the range of 183 to 187 °C. Moreover, the EC (1.5-fold) in data set [1] is 0.1 to 0.3 µM. Moreover, the “maximum fold (Fold) increase” value in the data set on Smn protein is “*** (fold increase between >1.35 and ≤1.5)”.

In the case of `Cc1nccn2cc(-c3cc4ccc(N5CCNCC5)cc4oc3=O)nc12` [Compound 571, 3-(8-methylimidazo[1,2-a]pyrazin-2-yl)-7-(piperazin-1-yl)-2H-chromen-2-one], the melting point lay within 213 to 215 °C. The EC (1.5-fold) in data set [1] lay within 0.3 to 1 µM. For the same compound, the “maximum fold (Fold) increase” value in the data set on Smn protein is “** (fold increase between >1.2 and ≤1.35)”.

Consider `C[C@@H]1CN(c2ccc3cc(-c4cn5cc(C6CC6)cc(F)c5n4)c(=O)oc3c2)CCN1` [Compound 503, 3-(6-cyclopropyl-8-fluoroimidazo[1,2-a]pyridin-2-yl)-7-[(3R)-3-methylpiperazin-1-yl]-2H-chromen-2-one], for which the melting point lay within 254 to 264 °C. Also, in data set [1], the EC (1.5-fold) was 0.3 to 1 µM. In addition, the “maximum fold (Fold) increase” value in the data set with Smn protein is “* (maximum fold increase of ≤1.2)”.

In turn, `O=c1oc2cc(N3CCCNCC3)ccc2cc1-c1nc(C(F)(F)F)cs1` [Compound 237, 7-(1,4-diazepan-1-yl)-3-[4-(trifluoromethyl)-1,3-thiazol-2-yl]-2H-chromen-2-one] returned a melting point of 200 °C. The EC (1.5-fold) in data set [1] fell in the range of 1 to 3 µM. Besides, in the data set on Smn protein, the “maximum fold (Fold) increase” value is listed as “* (maximum fold increase of ≤1.2)”.

For `Cc1csc(-c2cc3ccc(N4CCCNCC4)cc3oc2=O)n1` [Compound 284, 7-(1,4-diazepan-1-yl)-3-(4-methyl-1,3-thiazol-2-yl)-2H-chromen-2-one], the melting point lay in the range of 195 to 203 °C. Besides, the EC (1.5-fold) in data set [1] was in the range of 1 to 3 µM. In addition, in the data set on Smn protein, the “maximum fold (Fold) increase” value is given as “* (maximum fold increase of ≤1.2)”.

`Cc1ccn2cc(-c3cc4ccc(N5CCCNCC5)cc4oc3=O)nc2c1` [Compound 216, 7-(1,4-diazepan-1-yl)-3-(7-methylimidazo[1,2-a]pyridin-2-yl)-2H-chromen-2-one] returned a melting point of 236 °C. In addition, the EC (1.5-fold) in data set [1] was in the range of 0.3 to 1 µM. In the data set on Smn protein, the “maximum fold (Fold) increase” value was “*** (fold increase between >1.35 and ≤1.5)”.

The compound `Cc1cn2cc(-c3cc4ccc(N[C@@H]5CCN(C)C5)cc4oc3=O)nc2c(C)n1` [Compound 730, 3-(6,8-dimethylimidazo[1,2-a]pyrazin-2-yl)-7-{[(3R)-1-methylpyrrolidin-3-yl]amino}-2H-chromen-2-one] registered a melting point of 226 to 233 °C. For the same compound, the EC (1.5-fold) in data set [1] is under 0.1 µM. Further, the “maximum fold (Fold) increase” value in the data set with Smn protein is “*** (fold increase between >1.35 and ≤1.5)”.

`Cc1cn2cc(-c3cc4ccc(OCCN[C@H](C)CO)cc4oc3=O)nc2c(C)n1` [Compound 946, 3-(6,8-dimethylimidazo[1,2-a]pyrazin-2-yl)-7-(2-{[(2R)-1-hydroxypropan-2-yl]amino}ethoxy)-2H-chromen-2-one] registered a melting point of 185 to 188 °C. For the same compound, in data set [1], the EC (1.5-fold) was under 0.1 µM. For the same compound, in the data set with Smn protein, the EC1.5x (concentration giving 1.5-fold Smn protein increase) is under 300 nM; the “maximum fold (Fold) increase” value is “**** (fold increase between >1.5 and ≤1.65)”.

On to `C[C@H]1CN(c2ccc3cc(-c4cn5ccc(C(F)(F)F)cc5n4)c(=O)oc3c2)CCN1` [Compound 268, 7-[(3S)-3-methylpiperazin-1-yl]-3-[7-(trifluoromethyl)imidazo[1,2-a]pyridin-2-yl]-2H-chromen-2-one], for which the melting point is 252 to 260 °C. Besides, in data set [1], the EC (1.5-fold) lay within 0.3 to 1 µM. Besides, the “maximum fold (Fold) increase” value in the data set on Smn protein was “* (maximum fold increase of ≤1.2)”.

In turn, `Cc1cn2cc(-c3cc4ccc(N[C@@H]5CCN(C(C)C)C5)cc4oc3=O)nc2c(C)n1` [Compound 733, 3-(6,8-dimethylimidazo[1,2-a]pyrazin-2-yl)-7-{[(3R)-1-(propan-2-yl)pyrrolidin-3-yl]amino}-2H-chromen-2-one] returned a melting point of 200 to 207 °C. The EC (1.5-fold) in data set [1] was under 0.1 µM. For the same compound, the “maximum fold (Fold) increase” value in the data set with Smn protein was “*** (fold increase between >1.35 and ≤1.5)”.

The compound `Cc1cn2cc(-c3cc4ccc(N5CCN[C@@H](C)C5)cc4oc3=O)cc2c(C)n1` [Compound 680, 3-(1,3-dimethylpyrrolo[1,2-a]pyrazin-7-yl)-7-[(3S)-3-methylpiperazin-1-yl]-2H-chromen-2-one] returned a melting point of 162 to 165 °C. For the same compound, in data set [1], the EC (1.5-fold) was under 0.1 µM. Also, in the data set on Smn protein, the EC1.5x (concentration giving 1.5-fold Smn protein increase) is under 300 nM; the “maximum fold (Fold) increase” value was “**** (fold increase between >1.5 and ≤1.65)”.

In the case of `Cc1cn2cc(-c3cc4ccc(CCN(C)CCO)cc4oc3=O)nc2c(C)n1` [Compound 871, 3-(6,8-dimethylimidazo[1,2-a]pyrazin-2-yl)-7-{2-[(2-hydroxyethyl)(methyl)amino]ethyl}-2H-chromen-2-one], the melting point lay in the range of 168 to 172 °C. For the same compound, in data set [1], the EC (1.5-fold) is under 0.1 µM. In the data set with Smn protein, the EC1.5x (concentration giving 1.5-fold Smn protein increase) is under 300 nM; the “maximum fold (Fold) increase” value was “**** (fold increase between >1.5 and ≤1.65)”.

For the compound `Cc1cc(C)c2nc(-c3cc4ccc(N5CCCN(C)CC5)cc4oc3=O)cn2c1` [Compound 389, 3-(6,8-dimethylimidazo[1,2-a]pyridin-2-yl)-7-(4-methyl-1,4-diazepan-1-yl)-2H-chromen-2-one], the melting point was in the range of 164 to 169 °C. Moreover, the EC (1.5-fold) in data set [1] was in the range of 0.3 to 1 µM. In addition, the “maximum fold (Fold) increase” value with Smn protein was “*** (fold increase between >1.35 and ≤1.5)”.

Compound `O=c1oc2cc(N3CCN4CCC[C@H]4C3)ccc2cc1-c1cn2cccc(F)c2n1` [Compound 528, 3-(8-fluoroimidazo[1,2-a]pyridin-2-yl)-7-[(8aS)-hexahydropyrrolo[1,2-a]pyrazin-2(1H)-yl]-2H-chromen-2-one] showed a melting point of 235 to 238 °C. Further, the EC (1.5-fold) in data set [1] fell in the range of 1 to 3 µM. The “maximum fold (Fold) increase” value in the data set on Smn protein is “** (fold increase between >1.2 and ≤1.35)”.

In the case of `Cc1cn2cc(-c3cc4ccc(OC5CCN(C)CC5)cc4oc3=O)nc2c(C)n1` [Compound 867, 3-(6,8-dimethylimidazo[1,2-a]pyrazin-2-yl)-7-[(1-methylpiperidin-4-yl)oxy]-2H-chromen-2-one], the melting point lay in the range of 165 to 168 °C. Besides, the EC (1.5-fold) in data set [1] is under 0.1 µM. Also, in the data set on Smn protein, the EC1.5x (concentration giving 1.5-fold Smn protein increase) is under 300 nM; the “maximum fold (Fold) increase” value was “**** (fold increase between >1.5 and ≤1.65)”.

The compound `Cc1cn2cc(-c3cc4ccc(CN5CCN(C)CC5)cc4oc3=O)nc2c(C)n1` [Compound 849, 3-(6,8-dimethylimidazo[1,2-a]pyrazin-2-yl)-7-[(4-methylpiperazin-1-yl)methyl]-2H-chromen-2-one] showed a melting point of 220 to 223 °C. Further, the EC (1.5-fold) in data set [1] was in the range of 0.1 to 0.3 µM. For the same compound, in the data set with Smn protein, the EC1.5x (concentration giving 1.5-fold Smn protein increase) lay in the range of 300 to 1000 nM and the “maximum fold (Fold) increase” value is reported as “***** (fold increase >1.65)”.

`Cc1cn2cc(-c3cc4ccc(N5CCN(C6CC6)CC5)cc4oc3=O)nc2c(C)n1` [Compound 762, 7-(4-cyclopropylpiperazin-1-yl)-3-(6,8-dimethylimidazo[1,2-a]pyrazin-2-yl)-2H-chromen-2-one] registered a melting point of 263 to 266 °C. For the same compound, the EC (1.5-fold) in data set [1] is under 0.1 µM. Besides, in the data set with Smn protein, the EC1.5x (concentration giving 1.5-fold Smn protein increase) fell in the range of 300 to 1000 nM; the “maximum fold (Fold) increase” value was “**** (fold increase between >1.5 and ≤1.65)”.
